These results are taken from article PMC6832221 (Viruses, 2019).

Details of series [1]: method as in ref 25 = [25]. The conditions noted are these: mice; cited from earlier work.
The subject of series [2] is HCV NS3 protein expression (genotype 2a). Briefly: GT 2a Western blot of HCV NS3 protein in J6/JFH1 RNA-transfected Huh7.5 cells. Type of series: cell-based, Hepatitis C virus. Particulars: for T1/2 (time required for 50% reduction of the HCV NS3 protein): compound at 10 μM, Western blot, Huh7.5-J6/JFH1 (genotype 2a).
Series [3] concerns HCV NS3 protein level (genotype 1b). Briefly: GT 1b Western blot of HCV protein in Bart79I RNA-transfected Huh7.5 cells. Type of series: cell-based, Hepatitis C virus. The conditions noted are these: for T1/2 (time for 50% reduction of HCV protein): compound at 10 μM, Western blot, Huh7.5-Bart79I (genotype 1b). (In general: In western blotting, separated proteins are transferred to a membrane and probed.)

The test system of series [4] is genotype 2a HCV replication (Rluc-J6/JFH1). Briefly: GT 2a luciferase reporter assay in Rluc-J6/JFH1 RNA-transfected Huh7.5 cells. The class given is cell-based, Hepatitis C virus.
Series [5] is described as follows: In vivo pharmacokinetic study of SVF in mice. Particulars: male, ICR, mouse, plasma.
In series [6] the test system is genotype 2a HCV replication (J6/JFH1). Briefly: GT 2a RT-PCR in J6/JFH1 RNA-transfected Huh7.5 cells. The class given is cell-based, Hepatitis C virus.
Series [7] concerns genotype 1b HCV replication (Bart79I). Briefly: GT 1b RT-PCR in Bart79I replicon Huh7.5 cells. The class given is cell-based, Hepatitis C virus.
The next series deals with Huh7.5 cells. The series is described as follows: in vitro. Type of series: cell-based. Particulars: Table 1 summary; read-out: CC50 (M), GT 2a luciferase reporter assay.
The nature of another series: in vitro. The conditions noted are these: human; Table 1 summary; read-out: CC50 (M), GT 2a luciferase reporter assay. The class given is cell-based.
Series [8] deals with T1, genotype 1b HCV NS3 helicase (Hepatitis C virus genotype 1b, UniProt Q9WMX2).
T1 construct: 2 nM of HCV NS3 helicase in a total volume of 60 μL
T1 sequence (Q9WMX2 1027-1657): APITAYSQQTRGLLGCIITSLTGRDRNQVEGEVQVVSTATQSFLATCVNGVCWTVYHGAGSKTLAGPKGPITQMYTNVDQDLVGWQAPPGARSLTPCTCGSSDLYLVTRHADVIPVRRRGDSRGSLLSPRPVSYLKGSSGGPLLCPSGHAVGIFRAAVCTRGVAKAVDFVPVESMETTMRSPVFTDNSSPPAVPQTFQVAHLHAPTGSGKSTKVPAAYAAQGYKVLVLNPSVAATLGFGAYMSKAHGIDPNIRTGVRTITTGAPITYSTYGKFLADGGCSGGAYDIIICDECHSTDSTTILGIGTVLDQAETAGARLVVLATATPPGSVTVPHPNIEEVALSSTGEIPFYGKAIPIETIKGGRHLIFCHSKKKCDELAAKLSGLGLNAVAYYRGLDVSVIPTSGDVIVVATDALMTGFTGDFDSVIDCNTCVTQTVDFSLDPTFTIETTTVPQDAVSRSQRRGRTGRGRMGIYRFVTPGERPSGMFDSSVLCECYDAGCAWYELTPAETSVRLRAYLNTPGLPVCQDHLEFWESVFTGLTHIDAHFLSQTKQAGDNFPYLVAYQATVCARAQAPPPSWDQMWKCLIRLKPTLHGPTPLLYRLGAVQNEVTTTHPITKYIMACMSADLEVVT
Briefly: Graphene oxide (GO)-based NS3 helicase inhibition assay. The class given is biochemical.

The conditions of series [9]: cited from earlier work.
The subject of another series is HCV replication. On the set-up: method as in ref 14 = [14]. Particulars: previous study, cited from earlier work.
On the set-up of series [10]: method as in ref 14 = [14]. The conditions noted are these: previous study; cited from earlier work.
The next series addresses viral helicase NS3. Details: method as in ref 14 = [14]. Particulars: previous study; cited from earlier work.
Where [11] appears, read: read-out: EC50 (M), GT 2a Western blot, Table 1 summary.
The mark [12] stands for this setting: read-out: EC50 (M), GT 2a RT-PCR, Table 1 summary.
The mark [13] stands for this setting: read-out: EC50 (M), GT 1b RT-PCR, Table 1 summary.
Where [14] appears, read: Hepatitis C virus, Huh7.5, read-out: EC50 (M), GT 1b Western blot.
Where [15] appears, read: Hepatitis C virus, GETYPE2A|GT2A, Huh7.5, read-out: EC50 (M), GT 2a luciferase reporter assay, Table 1 summary.

The structures appear in SMILES notation. Like-named read-outs stand apart in the source and are kept apart here.

As usually defined, the EC50 is the midpoint of the concentration-response curve. For orientation: Cmax means the maximum level reached in the sampled fluid or tissue. As a reminder, the Tmax is the time from dosing to the highest level. With `Oc1ccc(/C=C/c2cc(O)cc3c2C(c2cc(O)cc(O)c2)C(c2ccc(O)cc2)O3)cc1` (racemic) [SVF, (±)- -viniferin], in series [1], the oral bioavailability entry is on record as “below 1%”. The “T1/2 (time required for 50% reduction of the HCV NS3 protein)” value in series [2] is given as 37.1 h. Also, the EC50 was 6.4e-06 M in series [2] (setting [11]); 9e-07 M in series [3] (read-out: EC50 (M), GT 1b Western blot, Table 1 summary); 2e-07 M in series [4] (read-out: EC50 (M), GT 2a luciferase reporter assay, Table 1 summary); 9.3e-06 M in series [6] (setting [12]); 1.7e-06 M in series [7] (setting [13]). The “T1/2 (time for 50% reduction of HCV protein)” value in [3] stood at 13.1 h. Also, the Cmax in series [5] (ip, intraperitoneal dose of 15 mg/kg, read-out: Cmax) turned out to be 2130 ± 403 ng/mL; in [5] (oral dose of 50 mg/kg, read-out: mean Cmax), 53.5 ± 28.2 ng/mL. Further, the time to peak (Tmax) in series [5] (oral dose of 50 mg/kg) is 22.5 min. In the series on Huh7.5 cells, the CC50 was above 1e-05 M.
Take `CC(=O)Oc1ccc(/C=C/c2cc(OC(C)=O)cc3c2C(c2cc(OC(C)=O)cc(OC(C)=O)c2)C(c2ccc(OC(C)=O)cc2)O3)cc1` (racemic) [SVF-5Ac, penta-acetylated (±)- -viniferin]: the half-maximal effective concentration (EC50) amounted to 1e-06 M in [2] (Hepatitis C virus, GETYPE2A|GT2A, Huh7.5, read-out: EC50 (M), GT 2a Western blot, Table 1 summary); 8e-07 M in series [3] (setting [14]); 2.4e-06 M in series [4] (setting [15]); 4.7e-06 M in [6] (Hepatitis C virus, GETYPE2A|GT2A, Huh7.5, read-out: EC50 (M), GT 2a RT-PCR, Table 1 summary); 1.04e-05 M in [7] (Hepatitis C virus, GETYPE1B|GT1B, Huh7.5, read-out: EC50 (M), GT 1b RT-PCR, Table 1 summary). In addition, in series [2], the “T1/2 (time required for 50% reduction of the HCV NS3 protein)” value was above 72 h. The “T1/2 (time for 50% reduction of HCV protein)” value in series [3] is 29.6 h. The CC50 at 72 h in “in vitro” is above 1e-05 M.
Turning to `Oc1ccc(/C=C/c2cc(O)cc3c2C(c2cc(O)cc(O)c2)C(c2ccc(O)cc2)O3)cc1` (stereo not drawn) [EVF, (+)-ε-viniferin], the “T1/2 (time required for 50% reduction of the HCV NS3 protein)” value in series [2] is listed as 35.1 h. Besides, the 50% effective concentration (EC50) in [2] (setting [11]) came to 1.2e-06 M; in series [3] (setting [14]) it was 9e-07 M; in series [4] (setting [15]), 1e-07 M; in series [6] (setting [12]), 2.9e-06 M; in series [7] (setting [13]), 7e-06 M. In addition, the “T1/2 (time for 50% reduction of HCV protein)” value in [3] came out at 58.2 h. The “fold more antiviral activity than SVF” value in [4] (genotype 2a renilla luciferase-based HCV replication assay) is 2.0 fold; in series [6] (genotype 2a RT-PCR-based HCV replication assay), 3.2 fold. The IC50 in series [8] (Cy5-dsDNA substrate, 2 nM HCV NS3 helicase, fluorescence Ex/Em 650/675 nm, read-out: IC50 (half maximal inhibitory concentration), NS3 helicase) was 58.7 nM. For the same molecule, the CC50 at 72 h in the series “in vitro” was above 1e-05 M.
In the case of `Oc1ccc(/C=C/c2cc(O)cc(O)c2)cc1` [resveratrol, reference compound], in [8] (negative control, up to a concentration of 10 μM), the “dose-dependent increase of fluorescence (helicase inhibition)” value is “did not”.
On to `Oc1ccc(/C=C/c2cc(O)cc3c2C(c2cc(O)cc(O)c2)C(c2ccc(O)cc2)O3)cc1` (stereo not shown) [viniferin], for which the oral bioavailability entry in series [9] is reported as “less than 1%”. In the series with HCV replication (read-out: EC50 value for inhibiting HCV replication in vitro), the 50% effective concentration (EC50) was 1000 nM.
As for `Oc1ccc([C@H]2Oc3cc(O)cc(/C=C/c4ccc5c(c4)[C@@H](c4cc(O)cc6c4[C@H](c4cc(O)cc(O)c4)[C@@H](c4ccc(O)cc4)O6)[C@H](c4ccc(O)cc4)O5)c3[C@@H]2c2cc(O)cc(O)c2)cc1` [vitisin B], the CC50 in series [10] was above 10 µM. In addition, the 50% effective concentration (EC50) in the series with HCV replication (read-out: EC50, anti-HCV activity) was 6 nM. For the same molecule, the IC50 at viral helicase NS3 is 3 nM.
